Earlier results on one compound are cited in patent publication US11718578B2, “Ketamine flow synthesis” (Université de Liège, priority 2017, dated 2023).

What is called IC50 is the concentration that inhibits the measured activity by half.

For this data set, the target named is glutamatergic N-methyl-D-aspartate (NMDA) receptor. The settings on record: non-competitive NMDA receptor antagonist; according to Tyler et al.

On to `CN[C@]1(c2ccccc2Cl)CCCCC1=O` [1a, (S)-2-(2-chlorophenyl)-2-(methylamino)-cyclohexanone], for which the IC50 was 465 nM.
